Laboratory results taken from US20230285258A1, “A SUNSCREEN FORMULATION” (priority 2019, published 2023).

What was measured:
[1] = formulation containing 10%, 2 mg/cm^2 daily for a week, cited from earlier work
[2] = Urine samples collected in 2007-2009 from Californian females; format: in vivo, human; details: from 22.9 ng/mL to 200 ng/mL
Protocol: Since the first day of sunscreen usage in 1930s, the exposure to sunscreen agents has begun. Initially the scope and frequency of the sunscreen usage among the human population was very limited. Therefore, the levels of UV filters found in human samples were usually low. However, for the last 20 years, the situation changed dramatically. In one epidemiological study conducted in 2003-2004, 2517 urine samples from United States (US) general population were analyzed for the presence of oxybenzone (benzophenone-3, bp-3), as part of the 2003-2004 National Health and Nutrition Examination Survey [A.M. Calafat, L.Y.Wong, X.YE, J.A.Reidy, L.L.Needham, Concentrations of the sunscreen agent benzophenone-3 in residents of the United States: National Health and nutrition Examination Survey 2003-2004, Environ. Health Perspect, 116(2008)893-897]. Oxybenzone was detected in 97% of the all samples with mean concentration of 22.9 ng/ml and 95th percentile concentration of 1040 ng/ml. As the data indicated the sunscreen agent occurrences is widespread. […] 543(2016)28-36]. […]

[3] = Californian females 2007-2009; cited from earlier work
[4] = US general population 2003-2004; cited from earlier work
[5] = Mice skin penetration test (ointment on shaved back, plasma HPLC)
Protocol: Mice preparation and blood sample taking: A group of mice ranging from 16 to 60 were fed with adequate food and water for 3 days. Twelve hours before the test the food was removed, and only water was given. Usually 12 mice were randomly selected with 2 mice assigned for each time points of 5, 15, 30, 60, 90, 120 minutes. Sometimes 3 mice may be selected for certain sample time points. Two hours before the test the mice were subjected to anesthesia and the hair on the back (2.5--3.0 cm^2) was removed. After recovering from anesthesia mice will be applied with testing ointment sample. The exact same testing procedures will be carried out with the control standard sample. At 5, 15, 30, 60, 90, 120 min. Blood sample (1 mL) will be collected after removing the eyes.
Blood sample pretreatment: after the blood sample was taken, it was immediately subjected to centrifugation 10 min. at 12000 rpm, supernatant plasma layer was taken, preserved at -20° C. for later use.
Blood sample preparation: Accurately transfer 150 µL plasma sample to a 1.5 mL EP test tube. Add methanol and acetonitrile 200 µL, respectively. Vertex mix for 1 min., then centrifuge for 10 min. at 12000 rpm. Precisely transfer the supernatant solution to another test tube. At 40° C. blow N2 through to dryness. To the solids left add methanol 150 µL, vertex mix for 1 min. centrifuge at 12000 rpm for 10 min. Supernatant solution was used directly for HPLC analysis.
(4-Aminomethoxy-2-hydroxy-phenyl)-phenyl-methanone-PAA-OMe-OPr(40): Column: C18 RP column (250 × 4.6 mm, 5 µm); column temperature: 25° C.; mobile phase: MeOH:0.05% Formic Acid = 70:30; Flow rate: 1.0 mL/min.; Wavelength: 310 nm; Injection volume: 20 L;
1-[4-(3-Amino-propoxy)-2-hydroxy-phenyl1-3-(4-tert-butyl-phenyl)-propane)-1,3-dione-PAA-OMe-OPr(40): Column: C18 RP column (250 × 4.6 mm, 5 m); column temperature: 25° C.; mobile phase: MeOH:0.05% Formic Acid = 80:20; Flow rate: 1.0 mL/min.; Wavelength: 360 nm; Injection volume: 20 µL; […]

increase of average concentration in urine sample compared to the 2003-2004 study [2] | Compound | mean urine concentration, females ([1]; adults) [ng/mL] | maximum plasma concentration, females [1] [ng/mL] | maximum plasma concentration, males [1] [ng/mL] | average level in urine samples [3] | highest level in urine samples [3] | 95th percentile concentration in urine [4] [ng/mL] | mean concentration in urine [4] [ng/mL] | hydrolysis in the plasma ([5]; inferred from mice blood samples after topical application) | sunscreen agent detected in plasma/blood samples by HPLC ([5]; mice, samples at 5, 15, 30, 60, 90, 120 min after topical application) | skin penetration of the sunscreen agent ([5]; topical test formulation on mice back, plasma at 5-120 min, compared with control formulation) | mean urine concentration, males ([1]; adults) [ng/mL]
 | Cc1ccc(C=C2C(=O)C3(C)CCC2C3(C)C)cc1 (stereo not drawn) [4-methylbenzylidene camphor] | 5 | 20 | 20 |  |  |  |  |  |  |  | 
more than 9 folds | COc1ccc(C(=O)c2ccccc2)c(O)c1 [oxybenzone] | 60 | 200 | 300 | around 200 ng/ml | up to 13000 ng/ml | 1040 | 22.9 |  |  |  | 
 | Octandioic Oxybenzone Ester |  |  |  |  |  |  |  | rapid hydrolysis | no octandioic oxybenzone esters was detected | skin penetration of octandioic oxybenzone ester | 
 | CCCCC(CC)COC(=O)C=Cc1ccc(OC)cc1 (stereo not drawn) [octyl methoxycinnamate] | 5 | 10 | 2 |  |  |  |  |  |  |  | 8
